“Also recorded” adds a separate entry of the source.

Common to all, as to assay type: cell-based, human
For experiment [1], the system named is weakly adherent MDA-MB-231 cells. Kind of experiment: 2D migration assay on step-gradient hydrogels under drug treatment (durotaxis). The note with it: WA mammary cells. From the text:
(§1) A two-step photopolymerization method was used as described previously (Happe et al., 2017) to produce hydrogels with alternating elasticity profiles. Acrylamide concentrations of the prepolymer solutions were modified to obtain elasticities matching that of the tumor and stromal environment of each type of cancer. For breast cancer hydrogels, 3% acrylamide (3.7% for lung, 6.4% for prostate) and 0.4% bis-acrylamide were used for the first prepolymer solution, which was polymerized between a methacrylated 18 mm coverslip and a chlorosilanated glass slide by exposing to ultraviolet light (350 nm) for 5 minutes, using 2-hydroxy-4′-(2-hydroxyethoxy)-2-methylpropiophenone (0.5%) as the photo-initiator. The PA hydrogel was removed from the chlorosilanated glass slide and dehydrated for 1 hour on a hot plate at 30° C. prior to rehydrating with a 2% acrylamide (3.7% for lung, 3.2% for prostate) and 0.4% bis-acrylamide prepolymer solution. The rehydrated gel was again exposed to UV light for 5 min through a high-resolution chrome patterned photomask 200 μm dark stripes and 100 μm clear stripes. The Young's moduli of each region were validated using atomic force microscopy.
(§2) The hydrogels were then placed in a 12-well plate on top of 50 μl of 2 mg/ml of collagen I to adhere the coverslip to the bottom of the well. After the collagen polymerized, the gels were immersed in a solution of sulfosuccinimidyl 6-(4′-azido-2′-nitrophenylamino)hexanoate (0.2 mg/ml, Sulfo-SANPAH; Pierce) dissolved in 4-(2-hydroxyethyl)-1-piperazineethanesulfonic acid buffer (pH 8.4, 50 mM) and exposed to UV light (350 nm) for 10 minutes. After washing several times with PBS, the functionalized surface of the gels was coated with collagen I (150 μg/ml) by incubating overnight at 37° C.
(§3) Weakly and strongly adherent cells were isolated at varying shear stresses using a parallel plate flow chamber (Beri et al., 2020). To ensure sufficient spacing between individual cells, MDA-MB-231 and NCI-H1299 cells were seeded at […] onto a fibronectin (2 μg/cm^2) coated glass plate and incubated overnight. […] For each cell line, PBS free of magnesium and calcium and with 4.5 g/L of dextrose was used to shear cells. Shear stresses used to detach the weakly adherent (WA) population were selected to collect about 20,000 cells at a given flow rate (3 min at 30 dynes/cm^2 for MDA-MB-231, 3 min at 60 dynes/cm^2 for PC-3 and NCI-H1299 cells). The strongly adherent (SA) population was collected after washing away the intermediate population at a higher shear stress (2 min 500 at dynes/cm^2 for MDA-MB-231, 5 min at 300 dynes/cm^2 for NCI-H1299, and 2 min at 750 dynes/cm^2 for PC-3), and detaching the remaining SA population using 0.25% trypsin-EDTA. Media was then pumped though the device to neutralize the trypsin and collect the SA cells. Collected cells were then seeded onto hydrogels and allowed to adhere for […] 2 hours prior to imaging.
(§4) Isolated cells were seeded at ˜1500 cells/well onto step-gradient gels fixed in a 12-well plate and allowed to adhere for no more than 2 hours to ensure a random distribution across the step-gradient at the start of imaging. The cells were imaged over 24 hours using a Nikon Eclipse Ti-S microscope equipped with a temperature and CO2 controller (Pathology Devices Inc., LiveCell). […] Cell trajectories were collected and analyzed using a custom MATLAB script (https://github.com/compactmatterlab/Durotaxis, MathWorks, Natick, MA). […]

Experiment [2] deals with strongly adherent MDA-MB231 cells. Nature of the experiment: 2D migration assay on collagen gels under microtubule-targeting drug treatment. The note with it: nocodazole 0.2 ug/mL, paclitaxel 0.5 ug/mL, tracked 24 hours on collagen gels. As for the experimental part:
(§5) To isolate the weakest and strongest 2% of the MDA-MB231 cell population for migration assays, the seeded plate was subjected to a low shear stress (28 dynes/cm^2) for 3 minutes to isolate WA cells in the flow through from the outlet. The shear stress was then increased to a high shear stress (510 dynes/cm^2) for 2 minutes to eliminate intermediate cell fractions. The remaining steps to isolate SA cells are listed above. The weakest MCF10A and […] cells were isolated using 170 and 130 dynes/cm^2 of shear stress respectively; the strongest were isolated using 1275 and 595 dynes/cm^2 respectively. 2D migration assays on collagen gels: 2.4 mg/mL Type I collagen gels were prepared by mixing collagen (Corning) with PBS, DI water, and 1 M NaOH and adjusted to pH 7.0. Gels were added to a 12-well plate and cured at 37° C. for 30 minutes. The weakest and strongest 2% of the cell population were seeded onto the gels and incubated overnight. The cells were imaged with a Nikon Eclipse Ti-S microscope equipped with a temperature- and CO2-controlled stage. Cells were imaged at 10× in brightfield every 15 minutes for 24 hours. The migration data was analyzed via Fiji. The positions were normalized to the starting point and analyzed via a custom MATLAB script to compute instantaneous speed and cell displacement. […] Cells that interacted with other cells for more than 2 hours were not tracked, as cell-cell interactions artificially slowed cell speed. For MDA-MB231 cell migration under drug treatment, cells were treated with either 0.2 μg/mL nocodazole (Cayman Chemical) or 0.5 μg/mL paclitaxel (LC Laboratories). Cells were imaged the following day for 24 hours and tracked as stated above.

In experiment [3] the test system is weakly adherent MDA-MB231 cells. The description is as above. The note with it: nocodazole 0.2 ug/mL, paclitaxel 0.5 ug/mL, tracked 24 hours on collagen gels. As for the experimental part: as §5
Experiment [4] relates to strongly adherent MDA-MB-231 cells. Kind of experiment: 2D migration assay on step-gradient hydrogels under drug treatment (durotaxis). To be noted: SA mammary cells; LPA 1, 10 μM or DMSO; t=3 and t=24 hours.
Description: as §1, §2, §3, §4

As for `Cc1ccc2c(c1)C(=O)[C@]1(O)CCN(c3ccc([N+](=O)[O-])cc3)C1=N2` [blebbistatin, (S)-4′-nitro-Blebbistatin], in experiment [1] (blebbistatin 100 μM vs DMSO, step-gradient hydrogels), the “cell speed on soft and stiff substrates” value is “decreased”. In experiment [1] (blebbistatin 1, 10, 100 μM or DMSO, t=3 and t=27 hours), the “durotactic behavior (cell fraction vs hydrogel position), dose dependent response” value was “became more durotactic”. Also, in experiment [1] (blebbistatin-treated vs DMSO), the antidurotactic migration entry was “much less likely” and the “likelihood to migrate from the soft substrate into the stiff substrate (durotactic migration)” value came out at 2 fold.
On to `COC(=O)Nc1nc2ccc(C(=O)c3cccs3)cc2[nH]1` [nocodazole], for which the average migration speed entry in experiment [2] is “unaffected; also recorded: no change”; in experiment [3] it was “migration speed reduced to that of the strongly adherent cells; also recorded: significant decrease in migration speed; also recorded: significant decrease in average speed”.
Regarding `CC(=O)O[C@H]1C(=O)[C@@]2(C)[C@H]([C@H](OC(=O)c3ccccc3)[C@]3(O)C[C@H](OC(=O)[C@H](O)[C@@H](NC(=O)c4ccccc4)c4ccccc4)C(C)=C1C3(C)C)[C@]1(OC(C)=O)CO[C@@H]1C[C@@H]2O` [paclitaxel], the average migration speed result is reported as “unaffected; also recorded: no change” in experiment [2] and “migration speed reduced to that of the strongly adherent cells; also recorded: significant decrease in migration speed; also recorded: significant decrease in average speed” in experiment [3].
As for “lysophosphatidic acid [lysophophatidic acid]”, the “durotactic behavior (cell fraction vs hydrogel position), dose dependent response” value in experiment [4] was “became less durotactic”.

(Values after patent US12187992B2, “Method and device for early cancer screening” (The Regents of the University of California, priority 2020, dated 2025).)
